From patent publication US11964990B2, “1,3,4,7-tetrahydro-2H-pyrrolo[3′,2′:5,6]pyrido[2,3-b][1,4]oxazepine bcl-2 inhibitors” (AbbVie Inc., priority 2022, dated 2024) come the findings set out here.

In experiment [1] the test system is RS4;11 cells. Put plainly: Cell viability assay (CellTiter-Glo) in RS4;11 cell line. Particulars: 24 hours, 10% Human Serum, 50% decrease in cell viability. It is filed as cell-based. In short, it runs like this:
(§1)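 RS4;11 or Molt-4 cells (3000 per well) in RPMI 1640 with 10% human serum treated with compound for 24 h, 5% CO2. Viability measured by CellTiter-Glo as percent of control; EC50 from sigmoidal dose-response curves.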
(Cellular ATP, detected with luciferase, serves as a proxy for viable cell number.)

Experiment [2] deals with Molt-4 cells. Put plainly: Cell viability counter screen assay (CellTiter-Glo) in Molt-4 cells. It is filed as cell-based. Particulars: 24 hours, 10% Human Serum, 50% decrease in cell viability. In short, it runs like this:
as §1
(In general: Counterscreens check selectivity or assay interference.)

Turning to `CC1(C)CC(c2ccc(Cl)cc2)=C2CN3CCN(c4ccc(C(=O)NS(=O)(=O)c5ccc(OC[C@H]6CC[C@@](C)(O)CC6)c([N+](=O)[O-])c5)c(N5CCCOc6nc7[nH]ccc7cc65)c4)C[C@H]3COCCCO[C@@H]2C1` [Example 49, 4-((4aS,10aR)-14-(4-chlorophenyl)-12,12-dimethyl-1,2,4a,5,8,9,10a,11,13,15-decahydro-7H,12H-benzo[f]pyrazino[2,1-c][1,8]dioxa[4]azacycloundecin-3(4H)-yl)-2-(3,4-dihydro-2H-pyrrolo[3′,2′:5,6]pyrido[2,3-b][1,4]oxazepin-1(7H)-yl)-N-((4-(((1s,4s)-4-hydroxy-4-methylcyclohexyl)methoxy)-3-nitrophenyl)sulfonyl)benzamide], the EC50 in experiment [1] is 25 nM; in experiment [2], 36 nM.

With `CN1CCC(Nc2ccc(S(=O)(=O)NC(=O)c3ccc(N4CCN5CC6=C(c7ccc(Cl)cc7)CC(C)(C)C[C@H]6OCCCOC[C@@H]5C4)cc3N3CCCOc4nc5[nH]ccc5cc43)cc2[N+](=O)[O-])CC1` [Example 31, 4-((4aS,10aR)-14-(4-chlorophenyl)-12,12-dimethyl-1,2,4a,5,8,9,10a,11,13,15-decahydro-7H,12H-benzo[f]pyrazino[2,1-c][1,8]dioxa[4]azacycloundecin-3(4H)-yl)-2-(3,4-dihydro-2H-pyrrolo[3′,2′:5,6]pyrido[2,3-b][1,4]oxazepin-1(7H)-yl)-N-((4-((1-methylpiperidin-4-yl)amino)-3-nitrophenyl)sulfonyl)benzamide], the EC50 stood at 3.24 nM in experiment [1] and 1220 nM in experiment [2].

For the molecule `CC1(C)CC(c2ccc(Cl)cc2)=C2CN3CCN(c4ccc(C(=O)NS(=O)(=O)c5cnc(OCC6(F)CCOCC6)c(Cl)c5)c(N5CCCOc6nc7[nH]ccc7cc65)c4)C[C@H]3COCCCO[C@@H]2C1` [Example 7, N-((5-chloro-6-((4-fluorotetrahydro-2H-pyran-4-yl)methoxy)pyridin-3-yl)sulfonyl)-4-((4aS,10aR)-14-(4-chlorophenyl)-12,12-dimethyl-1,2,4a,5,8,9,10a,11,13,15-decahydro-7H,12H-benzo[f]pyrazino[2,1-c][1,8]dioxa[4]azacycloundecin-3(4H)-yl)-2-(3,4-dihydro-2H-pyrrolo[3′,2′:5,6]pyrido[2,3-b][1,4]oxazepin-1(7H)-yl)benzamide], the EC50 in experiment [1] was 5.46 nM; in experiment [2], more than 10000 nM.

Regarding `COC1CO[C@H](CNc2ccc(S(=O)(=O)NC(=O)c3ccc(N4CCN5CC6=C(c7ccc(Cl)cc7)CC(C)(C)C[C@H]6OCCCOC[C@@H]5C4)cc3N3CCCOc4nc5[nH]ccc5cc43)cc2[N+](=O)[O-])C1` (stereo partly drawn) [Example 29, 4-((4aS,10aR)-14-(4-chlorophenyl)-12,12-dimethyl-1,2,4a,5,8,9,10a,11,13,15-decahydro-7H,12H-benzo[f]pyrazino[2,1-c][1,8]dioxa[4]azacycloundecin-3(4H)-yl)-2-(3,4-dihydro-2H-pyrrolo[3′,2′:5,6]pyrido[2,3-b][1,4]oxazepin-1(7H)-yl)-N-((4-((((2S)-4-methoxytetrahydrofuran-2-yl)methyl)amino)-3-nitrophenyl)sulfonyl)benzamide], the concentration giving a half-maximal response (EC50) is 1.97 nM in experiment [1] and 1890 nM in experiment [2].

Turning to `CO[C@H]1CC[C@H](COc2ccc(S(=O)(=O)NC(=O)c3ccc(N4CCN5CC6=C(c7ccc(Cl)cc7)CC(C)(C)C[C@H]6OCCCOC[C@@H]5C4)cc3N3CCCOc4nc5[nH]ccc5cc43)cc2Cl)OC1` [Example 40, N-((3-chloro-4-(((2R,5S)-5-methoxytetrahydro-2H-pyran-2-yl)methoxy)phenyl)sulfonyl)-4-((4aS,10aR)-14-(4-chlorophenyl)-12,12-dimethyl-1,2,4a,5,8,9,10a,11,13,15-decahydro-7H,12H-benzo[f]pyrazino[2,1-c][1,8]dioxa[4]azacycloundecin-3(4H)-yl)-2-(3,4-dihydro-2H-pyrrolo[3′,2′:5,6]pyrido[2,3-b][1,4]oxazepin-1(7H)-yl)benzamide], the values for the concentration for a half-maximal effect (EC50) in experiment [1] and in experiment [2] were 24.5 nM and more than 10000 nM, respectively.

By EC50 is commonly meant the midpoint of the concentration-response curve. Read a high EC50 as a less potent agent.
